Assays:
Format in all cases: in vivo
[1] = test system: Setaria viridis; test: Herbicidal post-emergence action; conditions: post-emergence method; for herbicidal effect against SETVI (Setaria viridis): 80 g/ha
Summary of the method: (§1)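 Percent herbicidal effect (0% like control, 100% plants dead) was rated by eye roughly three weeks post-treatment. Treatment was a post-emergence spray of wettable-powder formulations at different doses, 600 l/ha water with 0.2% wetter, onto one-leaf-stage weeds and crops grown in greenhouse pots.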

[2] = test system: Lolium multiflorum; test: Herbicidal post-emergence action; conditions: post-emergence method; for herbicidal effect against LOLMU (Lolium multiflorum): 80 g/ha
Summary of the method: as §1

[3] = test system: Echinocloa crus-galli; test: Herbicidal post-emergence action; conditions: post-emergence method; for herbicidal effect against ECHCG (Echinochloa crus-galli): 80 g/ha
Summary of the method: as §1

[4] = test system: Alopecurus myosuroides; test: Herbicidal post-emergence action; conditions: post-emergence method; for herbicidal effect against ALOMY (Alopecurus myosuroides): 80 g/ha
Summary of the method: as §1

[5] = test system: monocotylidonous and dicotylidonous weed and crop plants; test: Herbicidal pre-emergence action (other test plants); conditions: pre-emergence method, 80 g/ha, greenhouse, visual assessment vs untreated controls
Summary of the method: (§2)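 Test compounds, as wettable powder suspensions with 0.2% wetting agent at a water rate of 600 l/ha, were applied in different amounts to the covering soil over freshly sown seeds in sandy loam. Emergence damage was rated visually in percent against untreated plants after three weeks under greenhouse conditions.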

[6] = test system: monocotylidonous and dicotylidonous weed and crop plants; test: Herbicidal post-emergence action (other test plants); conditions: post-emergence method; for herbicidal effect against AVEFA (Avena fatua): 80 g/ha
Summary of the method: as §1

[7] = test system: Setaria viridis; test: Herbicidal pre-emergence action; conditions: pre-emergence method, 80 g/ha, greenhouse, visual assessment vs untreated controls
Summary of the method: as §2

[8] = test system: Lolium multiflorum; test: Herbicidal pre-emergence action; conditions: pre-emergence method, 80 g/ha, greenhouse, visual assessment vs untreated controls
Summary of the method: as §2

[9] = test system: Echinocloa crus-galli; test: Herbicidal pre-emergence action; conditions: pre-emergence method, 80 g/ha, greenhouse, visual assessment vs untreated controls
Summary of the method: as §2

[10] = test system: Alopecurus myosuroides; test: Herbicidal pre-emergence action; conditions: pre-emergence method, 80 g/ha, greenhouse, visual assessment vs untreated controls
Summary of the method: as §2

Cc1cc(C)c(C2=C([O-])C3CC4(CC3C2=O)OCCO4)c(C)c1.[Na+] (stereo not shown) [I-f-11]
herbicidal effect against SETVI (Setaria viridis) [1]: 80%
herbicidal effect against LOLMU (Lolium multiflorum) [2]: 100%
herbicidal effect against ECHCG (Echinochloa crus-galli) [3]: 90%
herbicidal effect against ALOMY (Alopecurus myosuroides) [4]: 60%
herbicidal effect AVEFA [5]: 50%
herbicidal effect against AVEFA (Avena fatua) [6]: 40%
herbicidal effect SETVI [7]: 20%
herbicidal effect LOLMU [8]: 100%
herbicidal effect ECHCG [9]: 0%
herbicidal effect ALOMY [10]: 40%

C=C1COC2(C[C@@H]3C(OC(=O)OCC)=C(c4c(CC)cc(C)cc4CC)C(=O)[C@@H]3C2)OC1 (relative stereo) [I-c-12]
herbicidal effect against SETVI (Setaria viridis) [1]: 100%
herbicidal effect against LOLMU (Lolium multiflorum) [2]: 100%
herbicidal effect against ECHCG (Echinochloa crus-galli) [3]: 100%
herbicidal effect against ALOMY (Alopecurus myosuroides) [4]: 90%
herbicidal effect AVEFA [5]: 80%
herbicidal effect against AVEFA (Avena fatua) [6]: 90%
herbicidal effect SETVI [7]: 100%
herbicidal effect LOLMU [8]: 100%
herbicidal effect ECHCG [9]: 100%
herbicidal effect ALOMY [10]: 100%

COc1cc(C)cc(C)c1C1=C([O-])C2CC3(CC2C1=O)OCCCO3.[Na+] (stereo not shown) [I-f-4]
herbicidal effect against SETVI (Setaria viridis) [1]: 100%
herbicidal effect against LOLMU (Lolium multiflorum) [2]: 100%
herbicidal effect against ECHCG (Echinochloa crus-galli) [3]: 100%
herbicidal effect against ALOMY (Alopecurus myosuroides) [4]: 100%
herbicidal effect AVEFA [5]: 50%
herbicidal effect against AVEFA (Avena fatua) [6]: 90%
herbicidal effect SETVI [7]: 50%
herbicidal effect LOLMU [8]: 100%
herbicidal effect ECHCG [9]: 90%
herbicidal effect ALOMY [10]: 0%

CCOC(=O)OC1=C(c2c(CC)cc(C)cc2CC)C(=O)C2CC3(CC12)OC(C)(C)C(C)(C)O3 (stereo not shown) [I-c-18]
herbicidal effect against SETVI (Setaria viridis) [1]: 0%
herbicidal effect against LOLMU (Lolium multiflorum) [2]: 90%
herbicidal effect against ECHCG (Echinochloa crus-galli) [3]: 80%
herbicidal effect against ALOMY (Alopecurus myosuroides) [4]: 60%
herbicidal effect AVEFA [5]: 0%
herbicidal effect against AVEFA (Avena fatua) [6]: 0%
herbicidal effect SETVI [7]: 10%
herbicidal effect LOLMU [8]: 100%
herbicidal effect ECHCG [9]: 100%
herbicidal effect ALOMY [10]: 90%

CC(=O)OC1=C(c2c(C)cc(C)cc2C)C(=O)C2CC3(COC(C)(C)O3)CC12 (mixture of isomers) [I-b-49]
herbicidal effect against SETVI (Setaria viridis) [1]: 60%
herbicidal effect against LOLMU (Lolium multiflorum) [2]: 100%
herbicidal effect against ECHCG (Echinochloa crus-galli) [3]: 100%
herbicidal effect against ALOMY (Alopecurus myosuroides) [4]: 90%
herbicidal effect AVEFA [5]: 70%
herbicidal effect against AVEFA (Avena fatua) [6]: 80%
herbicidal effect SETVI [7]: 0%
herbicidal effect LOLMU [8]: 70%
herbicidal effect ECHCG [9]: 50%
herbicidal effect ALOMY [10]: 90%

Cc1cc(C)c(C2=C(O)C3CC4(CC3C2=O)OCCO4)c(C)c1 (stereo not shown) [I-a-39]
herbicidal effect against SETVI (Setaria viridis) [1]: 90%
herbicidal effect against LOLMU (Lolium multiflorum) [2]: 100%
herbicidal effect against ECHCG (Echinochloa crus-galli) [3]: 90%
herbicidal effect against ALOMY (Alopecurus myosuroides) [4]: 100%
herbicidal effect AVEFA [5]: 70%
herbicidal effect against AVEFA (Avena fatua) [6]: 20%
herbicidal effect SETVI [7]: 30%
herbicidal effect LOLMU [8]: 100%
herbicidal effect ECHCG [9]: 0%
herbicidal effect ALOMY [10]: 80%

C=C1CC2C(=O)C(c3c(C)cc(C)cc3CC)=C(OC(=O)C(C)(C)C)C2C1 (stereo not shown) [I-b-73]
herbicidal effect against SETVI (Setaria viridis) [1]: 100%
herbicidal effect against LOLMU (Lolium multiflorum) [2]: 70%
herbicidal effect against ECHCG (Echinochloa crus-galli) [3]: 100%
herbicidal effect against ALOMY (Alopecurus myosuroides) [4]: 0%
herbicidal effect AVEFA [5]: 80%
herbicidal effect against AVEFA (Avena fatua) [6]: 0%
herbicidal effect SETVI [7]: 100%
herbicidal effect LOLMU [8]: 100%
herbicidal effect ECHCG [9]: 90%
herbicidal effect ALOMY [10]: 80%

COC(=O)OC1=C(c2c(C)cc(C)cc2C)C(=O)C2CC3(CC12)OCC(C)CO3 (mixture of isomers) [I-c-53]
herbicidal effect against SETVI (Setaria viridis) [1]: 90%
herbicidal effect against LOLMU (Lolium multiflorum) [2]: 100%
herbicidal effect against ECHCG (Echinochloa crus-galli) [3]: 90%
herbicidal effect against ALOMY (Alopecurus myosuroides) [4]: 100%
herbicidal effect AVEFA [5]: 50%
herbicidal effect against AVEFA (Avena fatua) [6]: 80%
herbicidal effect SETVI [7]: 60%
herbicidal effect LOLMU [8]: 90%
herbicidal effect ECHCG [9]: 0%
herbicidal effect ALOMY [10]: 100%

CCOC(=O)OC1=C(c2c(CC)cc(C)cc2CC)C(=O)C2CC3(CC12)OCC(C)O3 (mixture of isomers) [I-c-8]
herbicidal effect against SETVI (Setaria viridis) [1]: 90%
herbicidal effect against LOLMU (Lolium multiflorum) [2]: 100%
herbicidal effect against ECHCG (Echinochloa crus-galli) [3]: 100%
herbicidal effect against ALOMY (Alopecurus myosuroides) [4]: 90%
herbicidal effect AVEFA [5]: 40%
herbicidal effect against AVEFA (Avena fatua) [6]: 60%
herbicidal effect SETVI [7]: 50%
herbicidal effect LOLMU [8]: 100%
herbicidal effect ECHCG [9]: 60%
herbicidal effect ALOMY [10]: 60%

CCc1cc(C)cc(CC)c1C1=C(OC(=O)OC(C)C)C2CC3(CC2C1=O)OCCCO3 (stereo not shown) [I-c-34]
herbicidal effect against SETVI (Setaria viridis) [1]: 90%
herbicidal effect against LOLMU (Lolium multiflorum) [2]: 100%
herbicidal effect against ECHCG (Echinochloa crus-galli) [3]: 100%
herbicidal effect against ALOMY (Alopecurus myosuroides) [4]: 100%
herbicidal effect AVEFA [5]: 60%
herbicidal effect against AVEFA (Avena fatua) [6]: 100%
herbicidal effect SETVI [7]: 80%
herbicidal effect LOLMU [8]: 100%
herbicidal effect ECHCG [9]: 100%
herbicidal effect ALOMY [10]: 90%

CCc1cc(C)cc(CC)c1C1=C(OC(=O)C(C)C)C2CC3(CC2C1=O)OCC(C)CO3 (stereo not shown) [I-b-14]
herbicidal effect against SETVI (Setaria viridis) [1]: 100%
herbicidal effect against LOLMU (Lolium multiflorum) [2]: 100%
herbicidal effect against ECHCG (Echinochloa crus-galli) [3]: 100%
herbicidal effect against ALOMY (Alopecurus myosuroides) [4]: 100%
herbicidal effect AVEFA [5]: 70%
herbicidal effect against AVEFA (Avena fatua) [6]: 100%
herbicidal effect SETVI [7]: 100%
herbicidal effect LOLMU [8]: 100%
herbicidal effect ECHCG [9]: 100%
herbicidal effect ALOMY [10]: 100%

CCc1cc(C)cc(CC)c1C1=C(OC(C)=O)[C@H]2C[C@@]3(COC(C)(C)O3)C[C@H]2C1=O [I-b-1]
pest or weed control at 80 g/ha ([1]; Setaria viridis, 504 h, read-out: herbicidal effect against SETVI (Setaria viridis)): 40%
pest or weed control at 80 g/ha ([2]; Lolium multiflorum, 504 h, read-out: herbicidal effect against LOLMU (Lolium multiflorum)): 100%
pest or weed control at 80 g/ha ([3]; Echinochloa crus-galli, 504 h, read-out: herbicidal effect against ECHCG (Echinochloa crus-galli)): 100%
pest or weed control at 80 g/ha ([4]; Alopecurus myosuroides, 504 h, read-out: herbicidal effect against ALOMY (Alopecurus myosuroides)): 100%
herbicidal effect AVEFA [5]: 40%
pest or weed control at 80 g/ha ([6]; 504 h, Avena fatua, read-out: herbicidal effect against AVEFA (Avena fatua)): 60%
herbicidal effect SETVI [7]: 70%
herbicidal effect LOLMU [8]: 100%
herbicidal effect ECHCG [9]: 40%
herbicidal effect ALOMY [10]: 90%

CCc1cc(C)cc(CC)c1C1=C(OC(=O)C(C)C)C2CC3(CC2C1=O)OCC=CCO3 (stereo not shown) [I-b-12]
herbicidal effect against SETVI (Setaria viridis) [1]: 100%
herbicidal effect against LOLMU (Lolium multiflorum) [2]: 100%
herbicidal effect against ECHCG (Echinochloa crus-galli) [3]: 100%
herbicidal effect against ALOMY (Alopecurus myosuroides) [4]: 90%
herbicidal effect AVEFA [5]: 70%
herbicidal effect against AVEFA (Avena fatua) [6]: 100%
herbicidal effect SETVI [7]: 90%
herbicidal effect LOLMU [8]: 100%
herbicidal effect ECHCG [9]: 100%
herbicidal effect ALOMY [10]: 100%
